# Literature values, collected in Sander's compilation of Henry's law constants (doi:10.1021/je049693f).
# Several values for one entry are separate records, joined by “and”; a condition that tells them apart may be missing. Equal entries are not always repeated.
# Test: Henry solubility constant Hcp at 298.15 K (mol/(m3 Pa))
# Conditions: reference: Shen and Wania (2005); cited value
row,Structure (SMILES),Henry solubility constant Hcp
1,"Clc1ccc(C(c2ccc(Cl)cc2)C(Cl)(Cl)Cl)cc1 [1,1,1-trichloro-2,2-bis-(4-chlorophenyl)-ethane]",0.91
2,"Clc1ccc(C(c2ccc(Cl)cc2)C(Cl)Cl)cc1 [1,1-dichloro-2,2-bis-(4-chlorophenyl)-ethane]",1.5 and 2
3,"ClC(Cl)=C(c1ccc(Cl)cc1)c1ccc(Cl)cc1 [1,1-dichloro-2,2-bis-(4-chlorophenyl)-ethene]",0.24
4,ClC1=C(Cl)[C@]2(Cl)[C@H]3[C@H]([C@@H]4C=C[C@H]3C4)[C@@]1(Cl)C2(Cl)Cl [aldrin],0.067 and 0.043
5,ClC1=C(Cl)[C@]2(Cl)[C@@H]3[C@@H](Cl)[C@@H](Cl)C[C@@H]3[C@@]1(Cl)C2(Cl)Cl [cis-chlordane],0.17 and 0.18
6,ClC1=C(Cl)[C@]2(Cl)[C@@H]3[C@@H]4C[C@@H]([C@H]5O[C@@H]45)[C@@H]3[C@@]1(Cl)C2(Cl)Cl [dieldrin],1 and 0.91
7,ClC1=C(Cl)[C@]2(Cl)[C@@H]3[C@H]4C[C@H]([C@@H]5O[C@H]45)[C@@H]3[C@@]1(Cl)C2(Cl)Cl [endrin],1.6 and 0.91
8,ClC1=C(Cl)C2(Cl)C3C(Cl)C=CC3C1(Cl)C2(Cl)Cl (stereo not given) [heptachlor],0.033 and 0.026
9,ClC1=C(Cl)C2(Cl)C3C4OC4C(Cl)C3C1(Cl)C2(Cl)Cl (stereo not given) [heptachlorepoxide],0.48 and 0.59
10,ClC1=C(Cl)[C@]2(Cl)[C@H]3[C@H](Cl)[C@@H](Cl)C[C@H]3[C@@]1(Cl)C2(Cl)Cl [trans-chlordane],0.17 and 0.15
